Results from the NIST ThermoML archive (doi:10.1016/j.fluid.2016.07.022).
± gives the expanded uncertainty stated by the source.

Columns and labels:
[1] = 101.33 kPa, Liquid; for viscosity: Falling or rolling sphere viscometry; for speed of sound: Frequency=3 MHz, Single path-length method; for mass density: Vibrating tube method
[2] = wn = mass fraction of the nth substance listed; conditions: 298.15 K, 100 kPa, Liquid; for viscosity: Falling or rolling sphere viscometry; for speed of sound: Frequency=3 MHz, Single path-length method; for mass density: Vibrating tube method

| Compound | viscosity ([1]; 293.15 K) [mPa·s] | speed of sound ([1]; 293.15 K) [m/s] | mass density ([1]; 293.15 K) [kg/m3] | viscosity ([1]; 298.15 K) [mPa·s] | speed of sound ([1]; 298.15 K) [m/s] | mass density ([1]; 298.15 K) [kg/m3] | viscosity ([1]; 303.15 K) [mPa·s] | speed of sound ([1]; 303.15 K) [m/s] | mass density ([1]; 303.15 K) [kg/m3] | viscosity ([1]; 308.15 K) [mPa·s] | speed of sound ([1]; 308.15 K) [m/s] | mass density ([1]; 308.15 K) [kg/m3] | viscosity ([1]; 313.15 K) [mPa·s] | speed of sound ([1]; 313.15 K) [m/s] | mass density ([1]; 313.15 K) [kg/m3] | viscosity ([1]; 318.15 K) [mPa·s] | speed of sound ([1]; 318.15 K) [m/s] | mass density ([1]; 318.15 K) [kg/m3] | viscosity ([1]; 323.15 K) [mPa·s] | speed of sound ([1]; 323.15 K) [m/s] | further results |
| --- | --- | --- | --- | --- | --- | --- | --- | --- | --- | --- | --- | --- | --- | --- | --- | --- | --- | --- | --- | --- | --- |
| CCC(=O)[O-].CCCC[NH2+]CCO [N-(2-hydroxyethyl)butan-1-aminium propionate] | 675.6 ± 60 | 1513.8 ± 3.7 | 1004.9 ± 2.6 | 502.6 ± 40 | 1496.1 ± 3.7 | 1001.4 ± 2.6 | 385.1 ± 27 | 1478.9 ± 3.7 | 997.9 ± 2.6 | 282.1 ± 17 | 1462.2 ± 3.7 | 994.4 ± 2.6 | 212 ± 11 | 1445.9 ± 3.7 | 990.8 ± 2.6 | 155 ± 6.3 | 1429.7 ± 3.7 | 987.3 ± 2.6 | 115.6 ± 4 | 1413.7 ± 3.7 | mass density ([1]; 323.15 K): 983.6 ± 2.6 kg/m3; viscosity ([1]; 328.15 K): 87.6 ± 2.8 mPa·s; speed of sound ([1]; 328.15 K): 1397.4 ± 3.7 m/s; mass density ([1]; 328.15 K): 979.9 ± 2.6 kg/m3; viscosity ([1]; 333.15 K): 67.4 ± 2.3 mPa·s; speed of sound ([1]; 333.15 K): 1381.6 ± 3.7 m/s; mass density ([1]; 333.15 K): 976.3 ± 2.6 kg/m3; viscosity ([1]; 338.15 K): 52.4 ± 2.2 mPa·s; speed of sound ([1]; 338.15 K): 1365.8 ± 3.7 m/s; mass density ([1]; 338.15 K): 972.5 ± 2.6 kg/m3; viscosity ([1]; 343.15 K): 41.6 ± 2.1 mPa·s; speed of sound ([1]; 343.15 K): 1350.1 ± 3.7 m/s; mass density ([1]; 343.15 K): 968.8 ± 2.6 kg/m3 |
| CCCCC(=O)[O-].CCCC[NH2+]CCO [N-(2-hydroxyethyl)butan-1-aminium pentanoate] | 896.3 ± 88 | 1460 ± 3.7 | 970 ± 2.6 | 684.1 ± 61 | 1442.3 ± 3.7 | 966.5 ± 2.6 | 505.8 ± 40 | 1425.1 ± 3.7 | 963 ± 2.6 | 349.9 ± 24 | 1408.3 ± 3.7 | 959.4 ± 2.6 | 244.1 ± 14 | 1391.8 ± 3.7 | 955.8 ± 2.6 | 177.1 ± 8 | 1375.7 ± 3.7 | 952.2 ± 2.5 | 131.1 ± 4.8 | 1359.6 ± 3.7 | mass density ([1]; 323.15 K): 948.5 ± 2.5 kg/m3; viscosity ([1]; 328.15 K): 98.1 ± 3.2 mPa·s; speed of sound ([1]; 328.15 K): 1343.8 ± 3.7 m/s; mass density ([1]; 328.15 K): 944.8 ± 2.5 kg/m3; viscosity ([1]; 333.15 K): 73.9 ± 2.5 mPa·s; speed of sound ([1]; 333.15 K): 1328 ± 3.7 m/s; mass density ([1]; 333.15 K): 941.1 ± 2.5 kg/m3; viscosity ([1]; 338.15 K): 57.9 ± 2.2 mPa·s; speed of sound ([1]; 338.15 K): 1312.2 ± 3.7 m/s; mass density ([1]; 338.15 K): 937.4 ± 2.5 kg/m3; viscosity ([1]; 343.15 K): 45.4 ± 2.1 mPa·s; speed of sound ([1]; 343.15 K): 1296.6 ± 3.7 m/s; mass density ([1]; 343.15 K): 933.6 ± 2.5 kg/m3 |
| CCCC[NH2+]CCO.O=C[O-] [N-(2-hydroxyethyl)butan-1-aminium formate] | 474.4 ± 37 | 1616.5 ± 3.7 | 1038.1 ± 2.7 | 332.8 ± 22 | 1602.4 ± 3.7 | 1035.1 ± 2.7 | 234.2 ± 13 | 1588.4 ± 3.7 | 1032.1 ± 2.7 | 170.2 ± 7.5 | 1574.7 ± 3.7 | 1029.1 ± 2.7 | 128.3 ± 4.6 | 1561.4 ± 3.7 | 1026.1 ± 2.7 | 96.9 ± 3.2 | 1548.2 ± 3.7 | 1023.1 ± 2.7 | 75 ± 2.5 | 1535.1 ± 3.7 | mass density ([1]; 323.15 K): 1020.1 ± 2.7 kg/m3; viscosity ([1]; 328.15 K): 57.3 ± 2.2 mPa·s; speed of sound ([1]; 328.15 K): 1522.2 ± 3.7 m/s; mass density ([1]; 328.15 K): 1017 ± 2.7 kg/m3; viscosity ([1]; 333.15 K): 45.7 ± 2.1 mPa·s; speed of sound ([1]; 333.15 K): 1509.2 ± 3.7 m/s; mass density ([1]; 333.15 K): 1013.9 ± 2.7 kg/m3; viscosity ([1]; 338.15 K): 36.3 ± 2.1 mPa·s; speed of sound ([1]; 338.15 K): 1496.4 ± 3.7 m/s; mass density ([1]; 338.15 K): 1010.9 ± 2.7 kg/m3; viscosity ([1]; 343.15 K): 29.3 ± 2.1 mPa·s; speed of sound ([1]; 343.15 K): 1483.4 ± 3.7 m/s; mass density ([1]; 343.15 K): 1007.8 ± 2.7 kg/m3 |
| CCCC(=O)[O-].CCCC[NH2+]CCO [N-(2-hydroxyethyl)butan-1-aminium butyrate] + O |  |  |  |  |  |  |  |  |  |  |  |  |  |  |  |  |  |  |  |  | viscosity ([2]; w2 = 0.002762): 197.67 ± 9.7 mPa·s; viscosity ([2]; w2 = 0.004186): 190.86 ± 9.1 mPa·s; viscosity ([2]; w2 = 0.005795): 185.52 ± 8.7 mPa·s; viscosity ([2]; w2 = 0.006761): 182.63 ± 8.4 mPa·s; speed of sound ([2]; w2 = 0.002762): 1464.6 ± 3.7 m/s; speed of sound ([2]; w2 = 0.004186): 1466.2 ± 3.7 m/s; speed of sound ([2]; w2 = 0.005795): 1467.9 ± 3.7 m/s; speed of sound ([2]; w2 = 0.006761): 1468.9 ± 3.7 m/s; mass density ([2]; w2 = 0.002762): 980.15 ± 5.2 kg/m3; mass density ([2]; w2 = 0.004186): 981.17 ± 5.2 kg/m3; mass density ([2]; w2 = 0.005795): 982.18 ± 5.2 kg/m3; mass density ([2]; w2 = 0.006761): 982.74 ± 5.2 kg/m3 |
| CCCC(=O)[O-].CCCC[NH2+]CCO [N-(2-hydroxyethyl)butan-1-aminium butyrate] | 748.6 ± 69 | 1484.6 ± 3.7 | 983.7 ± 2.6 | 576.8 ± 48 | 1466.6 ± 3.7 | 980.1 ± 2.6 | 435.9 ± 32 | 1449 ± 3.7 | 976.6 ± 2.6 | 318.9 ± 20 | 1431.9 ± 3.7 | 973 ± 2.6 | 231.6 ± 12 | 1415.2 ± 3.7 | 969.4 ± 2.6 | 158.1 ± 6.6 | 1398.7 ± 3.7 | 965.7 ± 2.6 | 122.4 ± 4.3 | 1382.4 ± 3.7 | mass density ([1]; 323.15 K): 962 ± 2.6 kg/m3; viscosity ([1]; 328.15 K): 92.6 ± 3 mPa·s; speed of sound ([1]; 328.15 K): 1366.2 ± 3.7 m/s; mass density ([1]; 328.15 K): 958.3 ± 2.6 kg/m3; viscosity ([1]; 333.15 K): 69.8 ± 2.4 mPa·s; speed of sound ([1]; 333.15 K): 1350.2 ± 3.7 m/s; mass density ([1]; 333.15 K): 954.5 ± 2.6 kg/m3; viscosity ([1]; 338.15 K): 55.2 ± 2.2 mPa·s; speed of sound ([1]; 338.15 K): 1334.1 ± 3.7 m/s; mass density ([1]; 338.15 K): 950.7 ± 2.5 kg/m3; viscosity ([1]; 343.15 K): 43.1 ± 2.1 mPa·s; speed of sound ([1]; 343.15 K): 1318.2 ± 3.7 m/s; mass density ([1]; 343.15 K): 946.9 ± 2.5 kg/m3 |
| CC(=O)[O-].CCCC[NH2+]CCO [N-(2-hydroxyethyl)butan-1-aminium acetate] | 548.2 ± 45 | 1566.5 ± 3.7 | 1021.2 ± 2.7 | 421.6 ± 31 | 1546.5 ± 3.7 | 1017.8 ± 2.7 | 295.4 ± 18 | 1528.1 ± 3.7 | 1014.3 ± 2.7 | 214.5 ± 11 | 1510.8 ± 3.7 | 1010.8 ± 2.7 | 158.4 ± 6.6 | 1494 ± 3.7 | 1007.3 ± 2.7 | 119 ± 4.2 | 1477.6 ± 3.7 | 1003.8 ± 2.6 | 89.4 ± 2.9 | 1461.4 ± 3.7 | mass density ([1]; 323.15 K): 1000.3 ± 2.6 kg/m3; viscosity ([1]; 328.15 K): 68.6 ± 2.3 mPa·s; speed of sound ([1]; 328.15 K): 1445.2 ± 3.7 m/s; mass density ([1]; 328.15 K): 996.6 ± 2.6 kg/m3; viscosity ([1]; 333.15 K): 54 ± 2.2 mPa·s; speed of sound ([1]; 333.15 K): 1429.3 ± 3.7 m/s; mass density ([1]; 333.15 K): 993 ± 2.6 kg/m3; viscosity ([1]; 338.15 K): 42.9 ± 2.1 mPa·s; speed of sound ([1]; 338.15 K): 1413.2 ± 3.7 m/s; mass density ([1]; 338.15 K): 989.3 ± 2.6 kg/m3; viscosity ([1]; 343.15 K): 34.5 ± 2.1 mPa·s; speed of sound ([1]; 343.15 K): 1397.2 ± 3.7 m/s; mass density ([1]; 343.15 K): 985.6 ± 2.6 kg/m3 |
